Measured values taken from ChEMBL document CHEMBL2021759, “Discovery of 4'-azido-2'-deoxy-2'-C-methyl cytidine and prodrugs thereof: a potent inhibitor of Hepatitis C virus replication” (Bioorg Med Chem Lett, 2012).
pEC50, pIC50: −log10 of the molar value.

How the values were obtained:
Hepatitis C virus = test: Antiviral activity against Hepatitis C virus infected in human HuH7-Rep cells assessed as inhibition of viral replication by luciferase reporter gene assay; assay type: functional, organism-based, Hepacivirus hominis; conditions: Huh-7
[1] = Cytotoxicity against human HuH7 cells by CMV-luciferase reporter gene assay; assay type: cell-based, Huh-7
Rattus norvegicus [2] = test: AUCt in Sprague-Dawley rat assessed as 4'-azido-2'-deoxy-2'-methylcytidine level at 20 umol/kg, po; assay type: ADME, organism-based, Plasma; conditions: in vivo
Rattus norvegicus [3] = test: AUC (0 to infinity) in Sprague-Dawley rat assessed as 4'-azido-2'-deoxy-2'-methylcytidine level at 20 umol/kg, po; assay type: ADME, organism-based, Plasma; parameters: dose 20 umol/kg, route oral, time infinity; conditions: in vivo
Rattus norvegicus [4] = test: Cmax in Sprague-Dawley rat assessed as 4'-azido-2'-deoxy-2'-methylcytidine level at 20 umol/kg, po; assay type: ADME, organism-based; parameters: dose 20 umol/kg, route oral; conditions: in vivo
Rattus norvegicus [5] = test: Tmax in Sprague-Dawley rat assessed as 4'-azido-2'-deoxy-2'-methylcytidine level at 20 umol/kg, po; assay type: ADME, organism-based; conditions: in vivo
Rattus norvegicus [6] = test: Apparent oral clearance in Sprague-Dawley rat assessed as 4'-azido-2'-deoxy-2'-methylcytidine level at 20 umol/kg, po; assay type: ADME, organism-based; conditions: in vivo
Rattus norvegicus [7] = test: Oral bioavailability in Sprague-Dawley rat assessed as 4'-azido-2'-deoxy-2'-methylcytidine level at 20 umol/kg; assay type: ADME, organism-based; conditions: in vivo
[8] = Cytotoxicity against human MT4 cells by LTR-luciferase reporter gene assay; assay type: cell-based
[9] = Intrinsic clearance in human liver microsomes; assay type: ADME, Microsome; conditions: read-out: CLH
[10] = Apparent permeability across human Caco2 cells; assay type: ADME, cell-based; conditions: Caco-2
[11] = AUCt in Sprague-Dawley rat at 5 umol/kg, iv; assay type: ADME, organism-based; conditions: plasma
[12] = AUCt in Sprague-Dawley rat at 20 umol/kg, po; assay type: ADME, organism-based; conditions: plasma
[13] = AUC (0 to infinity) in Sprague-Dawley rat at 5 umol/kg, iv; assay type: ADME, organism-based; parameters: dose 5 umol/kg, route intravenous, time infinity; conditions: plasma
[14] = AUC (0 to infinity) in Sprague-Dawley rat at 20 umol/kg, po; assay type: ADME, organism-based; parameters: dose 20 umol/kg, time infinity, route oral; conditions: plasma
[15] = Cmax in Sprague-Dawley rat at 20 umol/kg, po; assay type: ADME, organism-based; parameters: dose 20 umol/kg, route oral; conditions: in vivo
[16] = Tmax in Sprague-Dawley rat at 20 umol/kg, po; assay type: ADME, organism-based; conditions: in vivo
[17] = Apparent oral clearance in Sprague-Dawley rat at 20 umol/kg, po; assay type: ADME, organism-based; conditions: in vivo
[18] = Oral bioavailability in Sprague-Dawley rat at 20 umol/kg; assay type: ADME, organism-based; conditions: in vivo
[19] = Intrinsic clearance in rat liver microsomes; assay type: ADME, Microsome; conditions: read-out: CLH

SMILES | pEC50 (Hepatitis C virus) | AUCt (Rattus norvegicus [2]) | AUC (Rattus norvegicus [3]) | Cmax (Rattus norvegicus [4]) | Tmax (Rattus norvegicus [5]) | CL/F (Rattus norvegicus [6]) | F (Rattus norvegicus [7]) | CC50 [1] | CC50 [8] | further results
C[C@H]1[C@H](n2ccc(=O)[nH]c2=O)O[C@@](COP(=O)(N[C@@H](C)C(=O)OCc2ccccc2)Oc2cccc3ccccc23)(N=[N+]=[N-])[C@H]1O (stereo partly drawn) | 5.21 |  |  |  |  |  |  | > 100 µM | 41 µM | 
C[C@H]1[C@H](n2ccc(N)nc2=O)O[C@@](COP(=O)(N[C@@H](C)C(=O)OCc2ccccc2)Oc2cccc3ccccc23)(N=[N+]=[N-])[C@H]1O (stereo partly drawn) | 5.52 |  |  |  |  |  |  | > 100 µM | > 32 µM | 
C[C@H]1[C@H](n2ccc(=O)[nH]c2=O)O[C@@](CO)(N=[N+]=[N-])[C@H]1O |  |  |  |  |  |  |  | > 100 µM | > 100 µM | pIC50 (Hepatitis C virus): < 4.30

Second part, led by results:

pEC50 (Hepatitis C virus) | AUCt (Rattus norvegicus [2]) | AUC (Rattus norvegicus [3]) | Cmax (Rattus norvegicus [4]) | Tmax (Rattus norvegicus [5]) | CL/F (Rattus norvegicus [6]) | F (Rattus norvegicus [7]) | SMILES | CC50 [1] | CC50 [8] | further results
5.72 | 1.22 µM·h | 1.35 µM·h | 290 nM | 1 h | 247 mL/min/kg | 7% | CC(C)[C@H](N)C(=O)OC[C@@]1(N=[N+]=[N-])O[C@@H](n2ccc(N)nc2=O)[C@H](C)[C@@H]1OC(=O)[C@@H](N)C(C)C.O=C(O)C(F)(F)F | > 100 µM |  | 
6.10 | 1.56 µM·h | 1.68 µM·h | 500 nM | 1 h | 200 mL/min/kg | 8% | CC(C)[C@H](N)C(=O)OC[C@@]1(N=[N+]=[N-])O[C@@H](n2ccc(N)nc2=O)[C@H](C)[C@@H]1O.O=C(O)C(F)(F)F | > 100 µM |  | 
6.14 | 3.66 µM·h | 4.06 µM·h | 1140 nM | 1 h | 82.2 mL/min/kg | 20% | CC(C)[C@H](N)C(=O)O[C@H]1[C@@H](C)[C@H](n2ccc(N)nc2=O)O[C@@]1(CO)N=[N+]=[N-].O=C(O)C(F)(F)F | > 100 µM |  | 
5.92 |  |  |  |  |  |  | C[C@H]1[C@H](n2ccc(N)nc2=O)O[C@@](CO)(N=[N+]=[N-])[C@H]1O | > 98 µM | > 98 µM | microsomal CLint [9]: < 6 µL/min/mg; Papp [10]: 1.7 ×10⁻⁶ cm/s; AUC(0-t) [11]: 4.97 µM·h; AUC(0-t) [12]: 2.66 µM·h; AUC(0-inf) [13]: 4.98 µM·h; AUC(0-inf) [14]: 2.87 µM·h; Cmax [15]: 610 nM; Tmax [16]: 2 h; CL/F [17]: 119 mL/min/kg; bioavailability [18]: 14%; microsomal CLint [19]: < 6 µL/min/mg
5.18 | 12.7 µM·h | 12.9 µM·h | 4650 nM | 1 h | 25.8 mL/min/kg | 65% | CC(C)C(=O)OC[C@@]1(N=[N+]=[N-])O[C@@H](n2ccc(N)nc2=O)[C@H](C)[C@@H]1OC(=O)C(C)C | > 100 µM | > 50 µM | microsomal CLint [9]: > 300 µL/min/mg; Papp [10]: 7.7 ×10⁻⁶ cm/s
